Measured values published in US8367713B2, “Inhibition and dispersion of bacterial biofilms with imidazole-triazole derivatives” (North Carolina State University, priority 2008, dated 2013).
Counter-ions that a name gives are not always drawn. Like-named read-outs stand apart in the source and are kept apart here.

Experiments:
MRSA = assay: Biofilm inhibition at 100 μM, MRSA; assay type: cell-based; settings: Staphylococcus aureus, biofilm inhibition, 100 μM, read-out: MRSA % Inhibition
Protocol: Procedure to Determine the Inhibitory Effect of Test Compounds on E. faecium, MRSA, S. epidermidis, PAO1, PA14, E. Coli and MDRAB Biofilm Formation: Inhibition assays were performed by taking an overnight culture of bacterial strain and subculturing it at an OD600 of 0.01 into the necessary media (brain heart infusion for E. faecium, tryptic soy broth with a 0.5% glucose supplement (TSBG) for MRSA, Luria-Bertani (LB) media for MDRAB, Luria-Bertani media without NaCl (LBNS) for PAO1 and PA14, Luria-Bertani (LB) media for E. coli and tryptic soy broth with a 0.5% glucose supplement and a 3.0% NaCl supplement (TGN) for S. epidermidis. Stock solutions of predetermined concentrations of the test compound were then made in the necessary media. These stock solutions were aliquoted (100 μL) into the wells of the 96-well PVC microtiter plate. Sample plates were then wrapped in GLAD Press n′ Seal® followed by an incubation under stationary conditions for 24 h at 37° C. After incubation, the media was discarded from the wells and the plates were washed thoroughly with water. Plates were then stained with 100 μL of 0.1% solution of crystal violet (CV) and then incubated at ambient temperature for 30 min. Plates were washed with water again and the remaining stain was solubilized with 200 μL of 95% ethanol. A sample of 125 μL of solubilized CV stain from each well was transferred to the corresponding wells of a polystyrene microtiter dish. Biofilm inhibition was quantitated by measuring the OD540 of each well in which a negative control lane wherein no biofilm was formed served as a background and was subtracted out.
Biofilm inhibition has been tested for the following compounds, each of which was tested at a concentration of 100 μM.

[1] = test system: Staphylococcus aureus biofilm; assay: Static bacterial biofilm inhibition assay (crystal violet), S. aureus; assay type: cell-based
Protocol: (§1) General Static Bacterial Biofilm Inhibition Assay Procedure for A. baumannii, P. aeruginosa, B. bronchiseptica and S. aureus: Biofilm inhibition assays were performed by taking an overnight culture of bacterial strain and subculturing it at an OD600 of 0.01 into the necessary growth liquid medium (LB for A. baumannii, LBNS for P. aeruginosa, Stainer Scholte medium that was supplemented with […] of 100× nutrient complex for B. bronchiseptica and TSBG for S. aureus) for the strain. The compound being tested was then added at a predetermined concentration and then aliquoted (100 μL) into the wells of a 96-well PVC microtiter plate (Wells not used for samples are filled with 100 μL of de-ionized water). Plates were then wrapped in GLAD Press n′ Seal® and incubated under stationary conditions at 37° C. After 24 hours, the media was discarded from the wells and the plates were washed thoroughly with tap water. Plates were then stained with 100 μL of 0.1% solution of crystal violet (CV) and then incubated at an ambient temperature for 30 minutes. Sample plates were then washed with tap water again and the remaining stain was solubilized with 200 μl, of 95% ethanol. Biofilm inhibition was quantitated by measuring the OD540 for each well by transferring 125 μL of the solubilized CV stain into a polystyrene microtiter dish for analysis.

[2] = test system: B. bronchiseptica Rb50 biofilms; assay: Static bacterial biofilm inhibition assay (crystal violet), Rb50; assay type: cell-based; settings: Bordetella bronchiseptica, RB50BIOFILMS
Protocol: (§2) Each 2-AIT conjugate was initially screened at 300 μM for their ability to inhibit P. aeruginosa PAO1 and PA14 biofilms, A. baumannii biofilms and B. bronchiseptica Rb50 biofilms using a crystal violet reporter assay (G. A. O'Toole, R. Kolter, Molecular Microbiology 1998, 2, 295-304). […] This is an order of magnitude increase in activity when compared to DHS (J. J. Richards, R. W. Huigens, T. E. Ballard, A. Basso, J. Cavanagh, C. Melander, Chemical Communications 2008, 14, 1698-1700). […] 6 also dispersed pre-formed A. baumanni biofilms with an EC50 of 400 μM (FIG. 2A).
as §1

[3] = test system: pre-formed B. bronchiseptica Rb50 biofilms; assay: Static bacterial biofilm dispersion assay, Rb50; assay type: cell-based; settings: Bordetella bronchiseptica
Protocol: (§3) General Static Bacterial Biofilm Dispersion Assay Procedure for A. baumannii, P. aeruginosa and S. aureus: Dispersion assays were performed by taking an overnight culture of bacterial strain and subculturing it at an OD600 of 0.01 into the necessary growth liquid medium. The resulting bacterial suspension was aliquoted (100 μL) into the wells of a 96-well PVC microtiter plate. Plates were then wrapped in GLAD Press n′ Seal® followed by an incubation under stationary conditions at an ambient temperature. After 24 hours, the media was discarded from the wells and the plates were washed thoroughly with tap water. Predetermined concentrations of the compound were then made in the same medium used to initially grow the biofilms and then aliquoted (100 μL) into the wells of the 96-well PVC microtiter plate with the established biofilms. Plates were then wrapped in GLAD Press n′ Seal® and incubated under stationary conditions at 37° C. After 24 hours, the media was discarded from the wells and the plates were washed thoroughly with tap water. Plates were then stained with 100 μL of 0.1% solution of crystal violet (CV) and then incubated at room temperature for 30 minutes. Plates were then washed with tap water again and the remaining stain was solubilized with 200 μL of 95% ethanol. Biofilm dispersion was quantitated by measuring the OD540 for each well by transferring 125 μL of the solubilized CV stain into a polystyrene microtiter dish for analysis.
General Static Bacterial Biofilm Dispersion Assay Procedure for B. bronchiseptica: This procedure is identical to the general dispersion procedure described above except that initial biofilm formation in the absence of the test compound was carried out at 37° C.

[4] = test system: pre-formed S. aureus biofilms; assay: Static bacterial biofilm dispersion assay, S. aureus; assay type: cell-based; settings: Staphylococcus aureus
Protocol: as §3

[5] = test system: pre-formed P. aeruginosa PAO1 biofilms; assay: Static bacterial biofilm dispersion assay, PAO1; assay type: cell-based; settings: Pseudomonas aeruginosa
Protocol: as §3

[6] = test system: pre-formed A. baumannii biofilms; assay: Static bacterial biofilm dispersion assay, A. baumannii; assay type: cell-based; settings: Acinetobacter baumannii
Protocol: as §3

[7] = test system: P. aeruginosa PAO1 biofilms; assay: Static bacterial biofilm inhibition assay (crystal violet), PAO1; assay type: cell-based; settings: Pseudomonas aeruginosa
Protocol: as §2, §1

A. baumannii biofilms = assay: Static bacterial biofilm inhibition assay (crystal violet), A. baumannii; assay type: cell-based, Acinetobacter baumannii; parameters: inhibition of A. baumannii biofilm development: dose or concentration left out as unconfirmed; settings: for IC50: read-out: IC50 of biofilm inhibition, A. baumannii
Protocol: as §2, §1

[8] = test system: pre-formed P. aeruginosa PA14 biofilms; assay: Static bacterial biofilm dispersion assay, PA14; assay type: cell-based; settings: Pseudomonas aeruginosa
Protocol: as §3

[9] = test system: P. aeruginosa PA14 biofilms; assay: Static bacterial biofilm inhibition assay (crystal violet), PA14; assay type: cell-based; settings: Pseudomonas aeruginosa
Protocol: as §2, §1

[10] = test system: A. baumannii, PAO1, PA14, Rb50, S. aureus (each bacterial strain); assay: Planktonic growth curves and colony counts, each bacterial strain; assay type: cell-based; settings: each bacterial strain grown in the presence of compound
Protocol: The OD600 was recorded at 1, 3, 4, 5, 6 and 24 hours.
General Colony Count Procedure for A. baumannii, P. aeruginosa, B. bronchiseptica and S. aeureus: Colony counts were performed by incubating either bacterial strain in the presence and absence of the test compound at 37° C. in culture tubes until the sample with the absence of the test compound reached an OD600 of 0.40 from a starting OD600 of 0.01. This typically took three to four hours. Once the OD600 of approximately 0.40 was observed, 100 μL were taken from each culture tube from which serial dilutions were made. Then, 10 μL were removed from each serial dilution and plated out on a square gridded petri-dish followed by 16 hours of incubation at 37° C. period (48 hours for B. bronchiseptica) to grow countable colonies. Viable bacteria were quantified through employment of the track-dilution method (Jett et al., Bio Techniques. 1997, 23, 648-650).

Compound `Nc1nc(CCCc2cn(CC(=O)NCc3ccccc3)nn2)c[nH]1` [2-{4-[3-(2-amino-1H-imidazol-4-yl)-propyl]-[1,2,3]triazol-1-yl}-N-benzyl-acetamide hydrochloride] has an inhibition at 100 µM (MRSA) of 58.1 ± 2%.
`Nc1nc(CCCc2cn(CC(=O)N3CCCC3)nn2)c[nH]1` [2-{4-[3-(2-amino-1H-imidazol-4-yl)-propyl]-[1,2,3]triazol-1-yl}-1-pyrrolidin-1-yl-ethanone hydrochloride] showed an inhibition at 100 µM (MRSA) of 35.4 ± 5%.
In the case of `C/C(=C\c1ccccc1)Cn1cc(CCCCc2cnc(N)[nH]2)nn1` [Compound 10, 4-{4-[1-(2-Methyl-3-phenyl-allyl)-1H-[1,2,3]triazol-4-yl]-butyl}-1H-imidazol-2-ylamine], the IC50 [1] is reported as 7000 nM, the IC50 [2] is reported as 23 µM and the EC50 [3] is reported as 59 µM. For the same compound, the EC50 [4] was 16 µM, the EC50 [5] was 81 µM and the EC50 [6] was 210 µM. The IC50 [7] was 15 µM, the IC50 (A. baumannii biofilms; Acinetobacter baumannii) was 2.8 µM and the EC50 [8] was 35 µM. The IC50 ([9]; P. aeruginosa PA14) was 4000 nM and the “bactericidal / microbicidal activity (colony counts and growth curves)” value [10] was “not due to bactericidal activity”.
Compound `COc1ccc(NC(=O)Cn2cc(CCCc3c[nH]c(N)n3)nn2)cc1` [2-{4-[3-(2-amino-1H-imidazol-4-yl)-propyl]-[1,2,3]triazol-1-yl}-N-(4-methoxy-phenyl)-acetamide hydrochloride] has an inhibition at 100 µM (MRSA) of 41.1 ± 2%.
For `C/C(=C\c1ccccc1)Cn1cc(Cc2c[nH]c(N)n2)nn1` [Compound 8, 4-[1-(2-Methyl-3-phenyl-allyl)-1H [1,2,3]triazol-4-ylmethyl]-1H-imidazol-2-ylamine hydrochloride], the “inhibition of A. baumannii biofilm development” value (A. baumannii biofilms; (highest concentration tested)) was less than 50%.
With `CCCCCCNC(=O)Cn1cc(CCCc2c[nH]c(N)n2)nn1` [2-{4-[3-(2-amino-1H-imidazol-4-yl)-propyl]-[1,2,3]triazol-1-yl}-N-hexyl-acetamide hydrochloride] the inhibition at 100 µM (MRSA) was 83.1 ± 16%.
With `Nc1nc(CCCc2cn(CC(=O)NCCCc3ccccc3)nn2)c[nH]1` [2-{4-[3-(2-amino-1H-imidazol-4-yl)-propyl]-[1,2,3]triazol-1-yl}-N-(3-phenyl-propyl)-acetamide hydrochloride] the inhibition at 100 µM (MRSA) was 64.8 ± 2%.
Work on `C/C(=C\c1ccccc1)Cn1cc(CCCCCc2c[nH]c(N)n2)nn1` [Compound 11, 4-{5-[1-(2-Methyl-3-phenyl-allyl)-1H-[1,2,3]triazol-4-yl]-pentyl}-1H-imidazol-2-ylamine hydrochloride] yielded an IC50 ([1]; S. aureus, value in nM) of 810 nM, an IC50 [2] of 9.5 µM and an EC50 [3] of 55 µM. The EC50 [4] was 2.6 µM, the EC50 [5] was 11 µM and the EC50 [6] was 120 µM. It also gave an IC50 [7] of 5.6 µM, an IC50 (A. baumannii biofilms; Acinetobacter baumannii) of 0.98 µM and an EC50 [8] of 22 µM. The IC50 ([9]; PA14, value in nM) was 530 nM and the “bactericidal / microbicidal activity (colony counts and growth curves)” value [10] was “not due to microbicidal activity”.
`C/C(=C\c1ccccc1)Cn1cc(CCc2c[nH]c(N)n2)nn1` [Compound 7, 4-{2-[1-(2-Methyl-3-phenyl-allyl)-1H-[1,2,3]triazol-4-yl]-ethyl}-1H-imidazol-2-ylamine hydrochloride] gave an IC50 (A. baumannii biofilms; Acinetobacter baumannii) of 220 µM.
In the case of `Nc1nc(CCCc2cn(CC(=O)NC3CCCCC3)nn2)c[nH]1` [2-{4-[3-(2-amino-1H-imidazol-4-yl)-propyl]-[1,2,3]triazol-1-yl}-N-cyclohexyl-acetamide hydrochloride], the inhibition at 100 µM (MRSA) is reported as 40.5 ± 4%.
For `Nc1ncc[nH]1` [2-Aminomidazole, reference compound], the “activity against A. baumannii biofilm development” value (A. baumannii biofilms; up to 800 μM (highest concentration tested)) was “devoid of activity”.
Compound `COc1ccc(CNC(=O)Cn2cc(CCCc3c[nH]c(N)n3)nn2)cc1` [2-{4-[3-(2-amino-1H-imidazol-4-yl)-propyl]-[1,2,3]triazol-1-yl}-N-(4-methoxy-benzyl)-acetamide hydrochloride] has an inhibition at 100 µM (MRSA) of 71 ± 3%.
`CC(C)(C)NC(=O)Cn1cc(CCCc2c[nH]c(N)n2)nn1` [2-{4-[3-(2-amino-1H-imidazol-4-yl)-propyl]-[1,2,3]triazol-1-yl}-N-tert-butyl-acetamide hydrochloride] was tested, and the inhibition at 100 µM (MRSA) was 28.2 ± 15%.
Compound `C/C(=C\c1ccccc1)Cn1cc(CCCn2ccnn2)nn1` [Compound 9, 1-(2-Methyl-3-phenyl-allyl)-4-(3-[1,2,3]triazol-1-yl-propyl)-1H-[1,2,3]triazole] has an inhibition at 800 µM (A. baumannii biofilms; Acinetobacter baumannii, at the highest concentration studied (800 μM), read-out: inhibition of A. baumannii biofilm development) of less than 30%.
`COc1ccc(CCNC(=O)Cn2cc(CCCc3c[nH]c(N)n3)nn2)cc1` [2-{4-[3-(2-amino-1H-imidazol-4-yl)-propyl]-[1,2,3]triazol-1-yl}-N-[2-(4-methoxy-phenyl)-ethyl]-acetamide hydrochloride] showed an inhibition at 100 µM (MRSA) of 18.3 ± 5%.
Compound `Nc1nc(CCCc2cn(CC(=O)NC3CCCC3)nn2)c[nH]1` [2-{4-[3-(2-amino-1H-imidazol-4-yl)-propyl]-[1,2,3]triazol-1-yl}-N-cyclopentyl-acetamide hydrochloride] has an inhibition at 100 µM (MRSA) of 64 ± 4%.
`CC(C)NC(=O)Cn1cc(CCCc2c[nH]c(N)n2)nn1` [2-{4-[3-(2-amino-1H-imidazol-4-yl)-propyl]-[1,2,3]triazol-1-yl}-N-isopropyl-acetamide hydrochloride] gave an inhibition at 100 µM (MRSA) of 36.4 ± 3%.
`Nc1nc(CCCc2cn(CC(=O)Nc3ccccc3)nn2)c[nH]1` [2-{4-[3-(2-amino-1H-imidazol-4-yl)-propyl]-[1,2,3]triazol-1-yl}-N-phenyl-acetamide hydrochloride] showed an inhibition at 100 µM (MRSA) of 41.9 ± 2%.
